Laboratory results taken from patent US20240336608A1, “IL4I1 INHIBITORS AND METHODS OF USE” (Merck Sharp & Dohme LLC, priority 2023, published 2024).
pEC50: −log10 of the molar value.

These molecules were tested against T1, recombinant IL4I1 (Homo sapiens, UniProt Q96RQ9) (assay: IL4I1 Enzymatic Assay (Amplex Red/HRP coupled detection of H2O2, fluorescence)). Conditions: 1 nM recombinant IL4I1; four-hour pre-incubation with compound; 1 mM each Phe, Tyr, Trp; ten-point titration.
T1 construct: purchased R&D Systems 5684-AO-020
T1 sequence (Q96RQ9 22-567): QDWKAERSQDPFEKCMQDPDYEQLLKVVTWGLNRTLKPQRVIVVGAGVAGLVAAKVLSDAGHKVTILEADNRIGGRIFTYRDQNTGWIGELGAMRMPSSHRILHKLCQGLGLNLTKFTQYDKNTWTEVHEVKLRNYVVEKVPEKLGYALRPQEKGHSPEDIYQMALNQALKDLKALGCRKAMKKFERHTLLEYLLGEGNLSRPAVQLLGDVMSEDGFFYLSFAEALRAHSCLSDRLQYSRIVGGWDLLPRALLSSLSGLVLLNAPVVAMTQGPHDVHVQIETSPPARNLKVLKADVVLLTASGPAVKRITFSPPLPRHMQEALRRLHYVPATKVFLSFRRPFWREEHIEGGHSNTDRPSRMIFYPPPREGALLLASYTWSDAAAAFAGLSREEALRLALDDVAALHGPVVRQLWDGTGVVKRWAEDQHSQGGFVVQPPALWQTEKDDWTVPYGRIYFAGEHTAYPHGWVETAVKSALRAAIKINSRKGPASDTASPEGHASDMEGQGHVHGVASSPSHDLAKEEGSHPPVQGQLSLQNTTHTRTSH
Type: biochemical
Procedure, shortened: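 H2O2 output was coupled to resorufin fluorescence (ex 544/em 590) via 0.05 mM Amplex Red and 1 U/mL HRP. Substrate: Phe, Tyr, Trp at 1 mM each; enzyme 1 nM, 4 h compound pre-incubation, 120 min reaction, pH 7.0 Hepes. EC50 by nonlinear four-parameter regression, 1:3 ten-point titration.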

| Structure (SMILES) | pEC50 |
| --- | --- |
| CC1(n2cc(C(=O)NCc3nnc(-c4ccccc4)s3)nn2)CCC1 [Example 124, 1-(1-methylcyclobutyl)-N-((5-phenyl-1,3,4-thiadiazol-2-yl)methyl)-1H-1,2,3-triazole-4-carboxamide] | 7.64 |
| CC(C)(Cn1cc(C(=O)NCc2nnc(-c3ccccc3)s2)nn1)C(N)=O [Example 126, 1-(3-amino-2,2-dimethyl-3-oxo-propyl)-N-[(5-phenyl-1,3,4-thiadiazol-2-yl)methyl]triazole-4-carboxamide] | 6.07 |
| O=C(NCc1nnc(-c2ccccc2)s1)c1cn(CC(O)C(F)(F)F)nn1 (stereo not drawn) [Example 127, N-((5-phenyl-1,3,4-thiadiazol-2-yl)methyl)-1-(3,3,3-trifluoro-2-hydroxypropyl)-1H-1,2,3-triazole-4-carboxamide] | 7.14 |
| O=C(NCc1nnc(-c2ccccc2)s1)c1cn(CC2CCOC2)nn1 (stereo not drawn) [Example 129, N-((5-phenyl-1,3,4-thiadiazol-2-yl)methyl)-1-((tetrahydrofuran-3-yl)methyl)-1H-1,2,3-triazole-4-carboxamide] | 6.91 |
| O=C(NCc1nnc(-c2ccccc2)s1)c1cn(CC2(F)CCC2)nn1 [Example 135, 1-((1-fluorocyclobutyl)methyl)-N-((5-phenyl-1,3,4-thiadiazol-2-yl)methyl)-1H-1,2,3-triazole-4-carboxamide] | 7.00 |
| O=C(NCc1nnc(-c2ccccc2)s1)c1cn(CC2(O)CCC2)nn1 [Example 137, 1-((1-hydroxycyclobutyl)methyl)-N-((5-phenyl-1,3,4-thiadiazol-2-yl)methyl)-1H-1,2,3-triazole-4-carboxamide] | 6.24 |
| O=C(NCc1nnc(-c2ccccc2)s1)c1cn(CC2(O)COC2)nn1 [Example 140, 1-((3-hydroxyoxetan-3-yl)methyl)-N-((5-phenyl-1,3,4-thiadiazol-2-yl)methyl)-1H-1,2,3-triazole-4-carboxamide] | 8.00 |
| C[C@H](C1COC1)n1cc(C(=O)NCc2nnc(-c3ccccc3)s2)nn1 [Example 149, (R)-1-(1-(oxetan-3-yl)ethyl)-N-((5-phenyl-1,3,4-thiadiazol-2-yl)methyl)-1H-1,2,3-triazole-4-carboxamide] | 6.88 |
| O=C(NCc1nnc(-c2ccccc2)s1)c1cn(C2(C(F)F)CC2)nn1 [Example 152, 1-(1-(difluoromethyl)cyclopropyl)-N-((5-phenyl-1,3,4-thiadiazol-2-yl)methyl)-1H-1,2,3-triazole-4-carboxamide] | 6.78 |
| O=C(NCc1nnc(-c2ccccc2)s1)c1cn(C2(C(F)(F)F)CC2)nn1 [Example 153, N-((5-phenyl-1,3,4-thiadiazol-2-yl)methyl)-1-(1-(trifluoromethyl)cyclopropyl)-1H-1,2,3-triazole-4-carboxamide] | 6.23 |
| CC1(Cn2cc(C(=O)NCc3nnc(-c4ccccc4)s3)nn2)COC1 [Example 161, 1-((3-methyloxetan-3-yl)methyl)-N-((5-phenyl-1,3,4-thiadiazol-2-yl)methyl)-1H-1,2,3-triazole-4-carboxamide] | 7.66 |
| CNC(=O)C1(n2cc(C(=O)NCc3nnc(-c4ccccc4)s3)nn2)CC1 [Example 162, 1-(1-(methylcarbamoyl)cyclopropyl)-N-((5-phenyl-1,3,4-thiadiazol-2-yl)methyl)-1H-1,2,3-triazole-4-carboxamide] | 6.92 |
| O=C(NCc1nnc(-c2ccccc2)s1)c1cn(Cc2cn[nH]c2)nn1 [Example 164, 1-((1H-pyrazol-4-yl)methyl)-N-((5-phenyl-1,3,4-thiadiazol-2-yl)methyl)-1H-1,2,3-triazole-4-carboxamide] | 7.77 |
| C[C@@H](CO)n1cc(C(=O)NCc2nnc(-c3ccccc3)s2)nn1 [Example 166, (S)-1-(1-hydroxypropan-2-yl)-N-((5-phenyl-1,3,4-thiadiazol-2-yl)methyl)-1H-1,2,3-triazole-4-carboxamide] | 8.05 |

More lines, in order of rising pEC50, values ahead:

| pEC50 | Structure (SMILES) |
| --- | --- |
| 6.34 | O=C(NCc1nnc(-c2ccccc2)s1)c1cn(CCN2CCNC2=O)nn1 [Example 125, 1-(2-(2-oxoimidazolidin-1-yl)ethyl)-N-((5-phenyl-1,3,4-thiadiazol-2-yl)methyl)-1H-1,2,3-triazole-4-carboxamide] |
| 6.47 | O=C(NCc1nnc(-c2ccccc2)s1)c1cn(C2(CO)COC2)nn1 [Example 158, 1-(3-(hydroxymethyl)oxetan-3-yl)-N-((5-phenyl-1,3,4-thiadiazol-2-yl)methyl)-1H-1,2,3-triazole-4-carboxamide] |
| 6.77 | O=C(NCc1nnc(-c2ccccc2)s1)c1cn(C2(CO)CC2)nn1 [Example 159, 1-(1-(hydroxymethyl)cyclopropyl)-N-((5-phenyl-1,3,4-thiadiazol-2-yl)methyl)-1H-1,2,3-triazole-4-carboxamide] |
| 6.78 | C[C@@H]1C[C@H]1n1cc(C(=O)NCc2nnc(-c3ccccc3)s2)nn1 [Example 134, 1-((1R,2R)-2-methylcyclopropyl)-N-((5-phenyl-1,3,4-thiadiazol-2-yl)methyl)-1H-1,2,3-triazole-4-carboxamide] |
| 6.79 | C[C@@H](C1COC1)n1cc(C(=O)NCc2nnc(-c3ccccc3)s2)nn1 [Example 148, (S)-1-(1-(oxetan-3-yl)ethyl)-N-((5-phenyl-1,3,4-thiadiazol-2-yl)methyl)-1H-1,2,3-triazole-4-carboxamide] |
| 6.98 | O=C(NCc1nnc(-c2ccccc2)s1)c1cn(C2(CO)CCC2)nn1 [Example 163, 1-(1-(hydroxymethyl)cyclobutyl)-N-((5-phenyl-1,3,4-thiadiazol-2-yl)methyl)-1H-1,2,3-triazole-4-carboxamide] |
| 7.17 | C[C@H](O)[C@@H](C)n1cc(C(=O)NCc2nnc(-c3ccccc3)s2)nn1 [Example 169, 1-((2R,3S)-3-hydroxybutan-2-yl)-N-((5-phenyl-1,3,4-thiadiazol-2-yl)methyl)-1H-1,2,3-triazole-4-carboxamide] |
| 7.31 | O=C(NCc1nnc(-c2ccccc2)s1)c1cn(Cc2ccno2)nn1 [Example 154, 1-(isoxazol-5-ylmethyl)-N-((5-phenyl-1,3,4-thiadiazol-2-yl)methyl)-1H-1,2,3-triazole-4-carboxamide] |
| 7.44 | N#CC1(n2cc(C(=O)NCc3nnc(-c4ccccc4)s3)nn2)CC1 [Example 160, 1-(1-cyanocyclopropyl)-N-((5-phenyl-1,3,4-thiadiazol-2-yl)methyl)-1H-1,2,3-triazole-4-carboxamide] |
| 7.54 | O=C(NCc1nnc(-c2ccccc2)s1)c1cn(CC2(O)CC2)nn1 [Example 136, 1-((1-hydroxycyclopropyl)methyl)-N-((5-phenyl-1,3,4-thiadiazol-2-yl)methyl)-1H-1,2,3-triazole-4-carboxamide] |
| 7.57 | C[C@H](O)Cn1cc(C(=O)NCc2nnc(-c3ccccc3)s2)nn1 [Example 128, (S)-1-(2-hydroxypropyl)-N-((5-phenyl-1,3,4-thiadiazol-2-yl)methyl)-1H-1,2,3-triazole-4-carboxamide] |
| 7.60 | O=C(NCc1nnc(-c2ccccc2)s1)c1cn(C2(CF)CC2)nn1 [Example 151, 1-(1-(fluoromethyl)cyclopropyl)-N-((5-phenyl-1,3,4-thiadiazol-2-yl)methyl)-1H-1,2,3-triazole-4-carboxamide] |
| 7.89 | CC(c1ccno1)n1cc(C(=O)NCc2nnc(-c3ccccc3)s2)nn1 (stereo not drawn) [Example 155, 1-(1-(isoxazol-5-yl)ethyl)-N-((5-phenyl-1,3,4-thiadiazol-2-yl)methyl)-1H-1,2,3-triazole-4-carboxamide] |
| 7.96 | O=C(NCc1nnc(-c2ccccc2)s1)c1cn(CC2COC2)nn1 [Example 157, 1-(oxetan-3-ylmethyl)-N-((5-phenyl-1,3,4-thiadiazol-2-yl)methyl)-1H-1,2,3-triazole-4-carboxamide] |
| 8.10 | O=C(NCc1nnc(-c2ccccc2)s1)c1cn(Cc2cc[nH]n2)nn1 [Example 156, 1-((1H-pyrazol-3-yl)methyl)-N-((5-phenyl-1,3,4-thiadiazol-2-yl)methyl)-1H-1,2,3-triazole-4-carboxamide] |
| 8.15 | O=C(NCc1nnc(-c2ccccc2)s1)c1cn(C[C@@H](F)CO)nn1 [Example 165, (R)-1-(2-fluoro-3-hydroxypropyl)-N-((5-phenyl-1,3,4-thiadiazol-2-yl)methyl)-1H-1,2,3-triazole-4-carboxamide] |
| 8.15 | C[C@@H](C(F)F)n1cc(C(=O)NCc2nnc(-c3ccccc3)s2)nn1 [Example 167, (S)-1-(1,1-difluoropropan-2-yl)-N-((5-phenyl-1,3,4-thiadiazol-2-yl)methyl)-1H-1,2,3-triazole-4-carboxamide] |
| 8.15 | C[C@H](C(F)F)n1cc(C(=O)NCc2nnc(-c3ccccc3)s2)nn1 [Example 168, (R)-1-(1,1-difluoropropan-2-yl)-N-((5-phenyl-1,3,4-thiadiazol-2-yl)methyl)-1H-1,2,3-triazole-4-carboxamide] |
| 8.40 | O=C(NCc1nnc(-c2ccccc2)s1)c1cn(CC2(F)CC2)nn1 [Example 150, 1-((1-fluorocyclopropyl)methyl)-N-((5-phenyl-1,3,4-thiadiazol-2-yl)methyl)-1H-1,2,3-triazole-4-carboxamide] |
